{
  "source": "patent US20140069008A1",
  "about": "“PLANT C[…] UTILIZING PHOSPHITE AS A NUTRIENT AND AS A CONTROL AGENT FOR WEEDS AND ALGAE” (Centro de Investigacion y de Estudios Avanzados del …, priority 2010, published 2014)",
  "key": {"[1]": {"test_system": "control seedlings (wild type, Col-0)", "assay": "Germination and growth of non-transformed seedlings in media lacking Pi, supplemented with Phi", "type": "in vivo, Arabidopsis", "protocol": "To confirm that 35S::PTXD plants are capable of using Phi as a P source, seeds from transgenic lines and non-transformed siblings were germinated in media lacking Pi, and supplemented with Phi.\nFIG. 5. Transgenic Arabidopsis plants expressing a phosphite oxidoreductase can use phosphite as a phosphorus source. (A) Comparative growth of seedlings from ptxDAt-3, -5 and -7 lines, and wild type (WT, Col-0) in solid media containing 1 mM phosphate (Pi) or 1 mM phosphite (Phi). (B) Transgenic Arabidopsis lines and WT control grown in vertical plates containing 1 mM Phi. (C) Transgenic and WT plants grown in a sterilized mixture of sand and vermiculite fertilized with Pi or Phi as phosphorus (P) source. Treatment without addition of a P source (NO P) was utilized as a control. A top view of WT plants in media containing 40 mg·kg^−1 Phi is included. Photographed plants are representative of two experiments with 8-10 plants/treatment/line each. The bar represents 5 cm to indicate scale.\nFIG. 6. Growth of WT Arabidopsis and tobacco plants in phosphite-containing media. Comparative growth of Arabidopsis and tobacco non-transformed seedlings in media lacking a phosphorus (P) source supplemented with 1 mM or 0.005 mM phosphate (Pi) or 1 mM phosphite (Phi)."}, "[2]": {"test_system": "control plants (WT Arabidopsis)", "assay": "Greenhouse growth in sterilized sand and vermiculite supplemented with Phi, control plants", "type": "in vivo", "protocol": "For Arabidopsis greenhouse experiments, pots were filled with 0.3 kg of a sterilized mixture of sand and vermiculite (1:1) and mechanically mixed with either Pi (KH2PO4) or Phi (NaH2PO3.5H2O) at 10, 20, and 40 mg·kg^−1. For tobacco experiments, 3 kg of the same substrate were weighed in black plastic bags amended with 20, 40, and 80 mg·kg^−1 of Pi or Phi. One plant per pot and 8-10 plants per line per treatment were included. Pots were arranged following a completely random design in the greenhouse. At harvest, aerial parts of Arabidopsis (36 days old) and Tobacco (120 days old) plants were cut off at the soil surface and dried in a vacuum oven at 70° C. for biomass quantification. In all cases, seeds were collected separately. Photosynthesis rate was determined using a portable Li-6200 photosynthesis system (Li-Cor, Lincoln, Nebr., USA) on fully expanded, young leaves. Leaf area was calculated using the software ImageJ [35].\nFIG. 5. Transgenic Arabidopsis plants expressing a phosphite oxidoreductase can use phosphite as a phosphorus source. (A) Comparative growth of seedlings from ptxDAt-3, -5 and -7 lines, and wild type (WT, Col-0) in solid media containing 1 mM phosphate (Pi) or 1 mM phosphite (Phi). (B) Transgenic Arabidopsis lines and WT control grown in vertical plates containing 1 mM Phi. […]"}, "WT plants (tobacco)": {"test_system": "WT plants (tobacco)", "assay": "Greenhouse growth in sterilized sand and vermiculite amended with Phi, WT tobacco", "type": "in vivo, Nicotiana tabacum L. cv Xanthi", "conditions": "substrate supplemented with Phi, after transplantation", "excerpt": "(§1) To determine whether expression of the ptxD gene would enable other plant species more amenable for physiological and weed-control studies to use Phi as a P source, we generated transgenic tobacco plants harboring the 35S::PTXD construct (ptxDNt lines) (see FIG. 8). Transgenic and control seedlings were transferred to plastic bags containing a sterilized mixture of sand and vermiculite amended with either Phi or Pi as P source. […] Because the main negative effect in vitro of Phi on WT plants was on root growth, we also examined the root system of transgenic and control plants grown under different treatments. […] Transgenic plants fertilized with Phi quantitatively performed as well as WT and ptxDNt plants fertilized with Pi (see FIG. 10A).\nFor Arabidopsis greenhouse experiments, pots were filled with 0.3 kg of a sterilized mixture of sand and vermiculite (1:1) and mechanically mixed with either Pi (KH2PO4) or Phi (NaH2PO3.5H2O) at 10, 20, and 40 mg·kg^−1. […] At harvest, aerial parts of Arabidopsis (36 days old) and Tobacco (120 days old) plants were cut off at the soil surface and dried in a vacuum oven at 70° C. for biomass quantification. […] Photosynthesis rate was determined using a portable Li-6200 photosynthesis system (Li-Cor, Lincoln, Nebr., USA) on fully expanded, young leaves. Leaf area was calculated using the software ImageJ [35]. […]"}, "ptxDNt plants": {"test_system": "ptxDNt plants", "assay": "Greenhouse growth in sterilized sand and vermiculite amended with Phi, transgenic tobacco", "type": "in vivo, Nicotiana tabacum L. cv Xanthi", "excerpt": "as §1\nPi is essential for CO2 fixation in the chloroplast, and plants suffering from Pi starvation have reduced levels of photosynthesis. […] When fertilized with either Pi or Phi, ptxDNt plants had rates of photosynthesis similar to those observed for control plants grown in Pi (see FIG. 10A). The effect on photosynthesis and root system development of control plants fertilized with Phi could not be evaluated because these plants died soon after transplantation.\nFor Arabidopsis greenhouse experiments, pots were filled with 0.3 kg of a sterilized mixture of sand and vermiculite (1:1) and mechanically mixed with either Pi (KH2PO4) or Phi (NaH2PO3.5H2O) at 10, 20, and 40 mg·kg^−1. […] At harvest, aerial parts of Arabidopsis (36 days old) and Tobacco (120 days old) plants were cut off at the soil surface and dried in a vacuum oven at 70° C. for biomass quantification. […] Photosynthesis rate was determined using a portable Li-6200 photosynthesis system (Li-Cor, Lincoln, Nebr., USA) on fully expanded, young leaves. Leaf area was calculated using the software ImageJ [35].\nFIG. 10. […] Note that Phi was not detected either in leaf or floral tissues of ptxDNt-36 plants grown in a Phi-amended substrate. * Indicates measurements that are statistically different from the corresponding control (p<0.005)."}, "[3]": {"test_system": "False Brome (Brachypodium distachyon)", "assay": "Growth competition experiment, weed", "type": "in vivo", "excerpt": "(§2) In addition to the incapacity of plants to metabolize it, Phi acts as a potentially effective herbicide mainly by interfering with the signaling pathways that induce the rescue system activated in Pi-starved plants. Cultivation of transgenic plants expressing the ptxD gene, combined with Phi as a P fertilizer, could be an effective weed control system in soils with low Pi availability. To test this idea, we carried out growth competition experiments between ptxDNt plants and the grass weed False Brome (Brachypodium distachyon), using Phi or Pi as a P fertilizer. In unfertilized soil, both B. distachyon and tobacco plants had limited growth. When soil was fertilized with Pi, the growth of both species increased, with the grass showing faster growth than the tobacco plants.\n(§3) For growth competition experiments, different proportions of seeds from ptxDNt-80 and the following weeds were utilized (transgenic:weed): Ipomoea purpurea (13:30), Brachiaria plantaginea (13:60), Amaranthus hybridus (5:15), Brachypodium distachyon (50:50). All seeds were sown in a tray containing a nonsterilized mixture of sand and vermiculite (2 kg for experiments with Amaranthus hybridus and 6 kg for the rest). […] Plants were harvested (at 54 day old for Brachiaria and Ipomoea or at 40 day old for A. hybridus experiments) for biomass quantification. […]"}, "[4]": {"test_system": "ptxDNt plants (ptxDNt-80)", "assay": "Growth competition experiment, transgenic tobacco", "type": "in vivo, Nicotiana tabacum", "conditions": "Phi fertilization, competition with B. distachyon", "excerpt": "as §2, §3"}, "[5]": {"test_system": "transgenic tobacco line ptxDNt-80", "assay": "Cultivation of transgenic tobacco in non-sterilized acidic agricultural soil amended with phosphite", "type": "in vivo", "protocol": "The results of Example 1 were obtained from greenhouse experiments with plants grown in a sterilized mixture of sand and vermiculite as the substrate. In contrast, the present example reports experiments performed in a greenhouse using a non-sterilized agricultural soil as a substrate, to determine whether the cultivation system disclosed herein works equally well with a natural substrate. Although the experiments were performed in a greenhouse, the agricultural soil was not sterilized and therefore contained soil organisms, such as bacteria and fungi, that live naturally in the soil.\nAn acidic agricultural soil was obtained from North Mexico. The soil has a low content of phosphorus, about 5 parts per million. The soil was used directly from the field, and was not sterilized. The soil is a sandy loam, composed of about 30% clay, 21% silt, and 49% sand, and is acidic, with a pH of 5.1. The soil has an electrical conductivity (milli-mhos per centimeter) of 0.20. The soil has 1.4% organic matter. Besides phosphorus, the soil has the following assimilable nutrients and minor elements (parts per million): nitrogen 5, potassium 100, iron 7, manganese 26, copper 0.2, and zinc 0.9. The soil has soluble cations and anions (milli-equivalents per liter) as follows: potassium 0.15, calcium 1.5, magnesium 0.5, sodium 0.5, bicarbonates 1.0, and chlorides 0.7.\nA transgenic tobacco line, ptxDNt-80, was used for the experiments. The transgenic line has been modified genetically to express a bacterial phosphite oxidoreductase, namely, PtxD (SEQ ID NO:1). The soil was amended with 40, 60, or 80 parts per million of phosphorus by addition of phosphate or phosphite. Then, seeds from the transgenic and control lines were sowed on the soil. The growth of the transgenic line was measured at different days after germination."}},
  "data": [
    {"substance": "phosphite", "values": [
      {"measurement": "growth of control seedlings", "setting": "[1]", "value": "completely arrested"},
      {"measurement": "survival of control plants", "setting": "[2]", "value": "≤ 20", "unit": "days"},
      {"measurement": "development of WT plants", "setting": "WT plants (tobacco)", "value": "completely arrested their development and died a few days after transplantation"},
      {"measurement": "total biomass difference versus plants under similar Pi regime", "setting": "ptxDNt plants; 80 mg·kg^−1 of Phi, greater than Pi, statistically significant", "value": 40, "unit": "%"},
      {"measurement": "total biomass versus plants under similar Pi regimes", "setting": "ptxDNt plants; 20 and 40 mg·kg^−1 of Phi", "value": "slightly higher"},
      {"measurement": "rate of photosynthesis versus control plants grown in Pi", "setting": "ptxDNt plants; fertilized with Phi", "value": "similar"},
      {"measurement": "decrease of weed biomass with respect to Pi fertilization", "setting": "[3]; Phi fertilization, competition with ptxDNt tobacco", "value": 90, "unit": "%"},
      {"measurement": "time at which weed growth was completely arrested", "setting": "[3]; Phi used as fertilizer", "value": "15-20 days after sowing"},
      {"measurement": "increase of tobacco biomass with respect to Pi fertilization", "setting": "[4]", "value": 865, "unit": "%"},
      {"measurement": "more seeds than either line fertilized with the same amount of phosphate", "setting": "[5]; 20 parts per million phosphite, four months after germination", "value": 33, "unit": "%"},
      {"measurement": "height versus transgenic or control plants fertilized with phosphate", "setting": "[5]; 68 or 74 days after germination", "value": "greater height"},
      {"measurement": "biomass of leaves and stems versus either line fertilized with phosphate", "setting": "[5]; 80 parts per million phosphite, 75 days after germination", "value": "higher biomass"},
      {"measurement": "total production of capsules and seeds per plant versus either line fertilized with phosphate", "setting": "[5]; four months after germination", "value": "similar"}
    ]}
  ]
}
